Test results as given in the NIST ThermoML archive (doi:10.1016/j.jct.2017.05.001).

Assay: wn = mass fraction of the nth substance listed
Conditions: Liquid; for mass density: Vibrating tube method

CN(C)CCO [2-(N,N-dimethylamino)ethanol] + O
mass density [kg/m3]
Conditions	w1 = 0.1005	w1 = 0.202	w1 = 0.3005	w1 = 0.3995
333.15 K, 130000 kPa	–	1018.6	1012.4	1005.5
333.15 K, 140000 kPa	1028.8	1021.9	1015.4	1008.7
353.15 K, 100 kPa	965.2	958.1	950.2	941.1
353.15 K, 500 kPa	965.3	958.1	950.3	941.2
353.15 K, 1000 kPa	965.6	958.4	950.6	941.4
353.15 K, 2000 kPa	966	958.8	951	941.9
353.15 K, 5000 kPa	967.3	960.1	952.4	943.3
353.15 K, 10000 kPa	969.5	962.4	954.7	–

viscosity [mPa·s], 353.15 K
Conditions	w1 = 0.1	w1 = 0.1005	w1 = 0.2	w1 = 0.202	w1 = 0.3	w1 = 0.3005	w1 = 0.3995	w1 = 0.4
100 kPa, Concentric cylinders viscometry	0.475	–	0.618	–	0.809	–	–	1.044
100 kPa, Falling or rolling sphere viscometry	–	0.4624	–	0.6055	–	0.8063	1.05	–
5000 kPa, Falling or rolling sphere viscometry	–	0.4644	–	0.6064	–	0.812	1.059	–
10000 kPa, Falling or rolling sphere viscometry	–	0.4671	–	0.6135	–	0.8213	1.074	–
